Usually IC50 stands for the point on the concentration scale where inhibition reaches its midpoint.

Like-named read-outs stand apart in the source and are kept apart here.

The values that follow come from patent US20190241569A1, “3-(ARYL OR HETEROARYL) METHYLENEINDOLIN-2-ONE DERIVATIVES AS INHIBITORS OF CANCER STEM CELL PATHWAY KINASES FOR THE TREATMENT OF CANCER” (Boston Biomedical, Inc., priority 2013, published 2019).

Assay [1] concerns FaDu CSC. Put plainly: Cancer stem cells, Cell Titer-Glo 72 hours (Test Example 3). Format: cell-based. As to conditions: Homo sapiens, FaDu, 72 h.
For assay [2], the target named is T1, human RIOK2 protein (Homo sapiens, UniProt Q9BVS4).
T1 construct: glutathione S-transferase is fused to N-terminal of a full-length human RIOK2 protein; GST (glutathione S-transferase) (N); purchased CarnaBio, Inc; host or cells: baculovirus-Sf21 cell expression system
Put plainly: RIOK2 autophosphorylation ELISA (Test Example 4). Format: biochemical. The protocol: A protein in which glutathione S-transferase is fused to N-terminal of a full-length human RIOK2 protein was used as a recombinant human RIOK2 protein. The protein was prepared using a baculovirus-Sf21 cell expression system from CarnaBio, Inc. A kinase reaction solution was prepared by mixing 25 μg/mL of the recombinant human RIOK2 protein and 100 μM of ATP in 20 μl of kinase reaction buffer (50 mM Tris-HCl, 10 mM MgCl2, 10 mM MnCl2, 1 mM DTT, 0.01% Brij, 1× PhosSTOP (manufactured by Roche Applied Science)), and was incubated at a temperature of 30° C. for 1 hour. After adding 30 μl of 40 mM EDTA solution to this kinase reaction solution, the kinase reaction solution was transferred to a MaxiSorp 96 well plate (manufactured by Nunc). Thereafter, phosphorylated human RIOK2 protein was allowed to adsorb onto the wells by leaving the plate in a refrigerator overnight.
The following day, the supernatant was removed, and the wells were washed three times with ELISA buffer (20 mM Tris-HCl, 150 mM NaCl, 0.2% Tween-20, 0.1% BSA). Thereafter, 100 μl of Blocking-One P (product name; manufactured by Nacalai Tesque, Inc.) was applied to the wells, and a blocking treatment was performed for 1 hour at room temperature. […] After further washing the wells, a secondary antibody, anti-rabbit IgG conjugated with horseradish peroxidase (manufactured by Jackson ImmunoResearch; 1/4000 ELISA buffer-diluted solution), was applied to the wells, and incubation was performed for 30 minutes at room temperature. After washing the wells once again, 50 μl of tetramethyl benzidine (TMB) aqueous solution (manufactured by Nacalai Tesque, Inc.) was applied to the wells, and a coloring reaction was performed for 30 minutes at room temperature. Thereafter, the coloring reaction was stopped by adding 50 μl of 2M H2SO4 to the wells. An absorptiometric level of 450 nm was measured in each well using ARVO SX (manufactured by Wallac).
(In an ELISA, binding on a coated surface is turned into a signal by an enzyme label.)

In assay [3] the test system is FaDu. Description: Bulk cancer cells, Cell Titer-Glo 72 hours (Test Example 2). Format: cell-based. The conditions noted are these: Homo sapiens. How it is done: (§1) Tubes of 3× drug (60 uM in 500 uL complete media) were prepared from 5 mM stock solutions in DMSO. […] To treat cells, 50 uL of drug from the dilution plate was removed and added to the cell plates. […] Cells were harvested 72 hours after drug addition using Cell Titer-Glo (Promega) and luminescence measured on a plate reader.

Assay [4] concerns A549. The description is as above. As to conditions: Homo sapiens. It counts as cell-based. How it is done: as §1
The subject of assay [5] is ACHN. Described as above. Format: cell-based. The conditions noted are these: Homo sapiens, ACHN, 72 h. How it is done: as §1
Assay [6] relates to ACHN CSC. Put plainly: Cancer stem cells, Cell Titer-Glo 72 hours (Test Example 3). It counts as cell-based. The conditions noted are these: Homo sapiens, ACHN, 72 h. (Cellular ATP, detected with luciferase, serves as a proxy for viable cell number.)
Assay [7] has as its system A549 CSC. The description is as above. As to conditions: Homo sapiens. It counts as cell-based.
In assay [8] the test system is p-AMPK Thr172. Description: Kinase inhibition, Western blot in HeLa cells (Test Example 5). Format: cell-based. As to conditions: Homo sapiens, 6 hours, DMSO = 100, read-out: p-AMPK Relative Intensity (%). Background: In western blotting, separated proteins are transferred to a membrane and probed.
The test system of assay [9] is p-RPS6 Ser235/236. Described as above. The conditions noted are these: Homo sapiens, 6 hours, DMSO = 100, read-out: p-RPS6 Ser235/236 Relative Intensity (%). It counts as cell-based.
The subject of assay [10] is p-RPS6 Ser240/244. The assay is described as above. It counts as cell-based. As to conditions: Homo sapiens, 6 hours, DMSO = 100, read-out: p-RPS6 Ser240/244 Relative Intensity (%).

T1 sequence (Q9BVS4 whole entry, the tested form may be a part): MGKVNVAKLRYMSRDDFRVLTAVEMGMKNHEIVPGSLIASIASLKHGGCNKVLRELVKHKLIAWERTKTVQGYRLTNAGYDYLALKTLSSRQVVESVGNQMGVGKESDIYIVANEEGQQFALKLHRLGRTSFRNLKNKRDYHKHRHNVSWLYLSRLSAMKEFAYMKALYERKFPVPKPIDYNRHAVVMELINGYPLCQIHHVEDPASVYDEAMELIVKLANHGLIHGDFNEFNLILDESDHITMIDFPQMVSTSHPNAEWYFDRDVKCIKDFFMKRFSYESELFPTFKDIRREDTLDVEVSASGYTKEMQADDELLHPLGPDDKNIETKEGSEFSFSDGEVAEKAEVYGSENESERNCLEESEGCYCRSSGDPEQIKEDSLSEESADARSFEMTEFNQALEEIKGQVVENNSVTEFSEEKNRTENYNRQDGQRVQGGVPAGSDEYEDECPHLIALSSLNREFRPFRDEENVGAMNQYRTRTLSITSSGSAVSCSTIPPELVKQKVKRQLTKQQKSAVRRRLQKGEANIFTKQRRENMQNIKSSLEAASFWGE

Take `Cc1[nH]c(/C=C2\C(=O)Nc3ccc(-c4cnn(-c5ccccn5)c4)cc32)c(C)c1C(=O)NCCN1CCCC1` [Example 33]: the 50% inhibitory concentration (IC50) came out at 1.65 µM in assay [1]; 2.53 µM in assay [3]; 2.53 µM in assay [4]; 1.64 µM in assay [5]; 0.22 µM in assay [6]; 11.7 µM in assay [7]. Besides, the inhibition at 1 µM in assay [2] (read-out: Inhibitory activity at 1 μM (%)) was found to be 53%. The inhibition at 10 µM in assay [2] (read-out: Inhibitory activity at 10 μM (%)) was found to be 91%. The activity at 5 µM in assay [8] (5 uM) worked out at 52%; in [9] (5 uM) it was 82%; in [10] (5 uM) it was 92%.

For the compound `CCN(CC)CCNC(=O)c1c(C)[nH]c(/C=C2\C(=O)Nc3c2cccc3-c2cncnc2)c1C` [Example 282], the IC50 in [1] came to 6.73 µM; in assay [3], 36.3 µM; in assay [4], 21.5 µM; in [5], 16.4 µM; in [6], 10.9 µM; in assay [7], 27.5 µM. Moreover, the activity at 5 µM in assay [8] (5 uM compound, Western blot) came out at 60%; in assay [9] (5 uM compound, Western blot), 71%; in [10] (5 uM compound, Western blot), 72%.

As to `CCN(CC)CCNC(=O)c1c(C)[nH]c(/C=C2\C(=O)Nc3c2cccc3-c2cncc(C)c2)c1C` [Example 283], the IC50 in assay [1] came to 2.2 µM; in assay [3], 6.23 µM; in assay [4], 3.36 µM; in assay [5], 1.68 µM; in assay [6] it was 1.97 µM; in assay [7], 2.23 µM. Moreover, the activity at 5 µM in assay [8] (5 uM compound, Western blot) was determined as 50%; in assay [9] (5 uM compound, Western blot), 47%; in assay [10] (5 uM compound, Western blot) it was 59%.

For the compound `CCN(CC)CCNC(=O)c1c(C)[nH]c(/C=C2\C(=O)Nc3c2cccc3-c2ccncc2)c1C` [Example 284], the IC50 in [1] was determined as 4.41 µM; in assay [3] it was 6.74 µM; in assay [4], 6.85 µM; in [5] it was 6.39 µM; in assay [6], 4.99 µM; in [7], 12.6 µM. Further, the activity at 5 µM in [8] (5 uM compound, Western blot) turned out to be 56%; in assay [9] (5 uM compound, Western blot) it was 60%; in [10] (5 uM compound, Western blot) it was 65%.

In the case of `CCN(CC)CCNC(=O)c1c(C)[nH]c(/C=C2\C(=O)Nc3c2cccc3-c2ccc3cc[nH]c3c2)c1C` [Example 285], the 50% inhibitory concentration (IC50) in assay [1] came to 2.06 µM; in [3], 2.77 µM; in assay [4] it was 2.91 µM; in assay [5], 3 µM; in assay [6] it was 1.86 µM; in assay [7] it was 3.9 µM. Moreover, the activity at 5 µM in [8] (5 uM compound, Western blot) was determined as 39%; in assay [9] (5 uM compound, Western blot) it was 29%; in assay [10] (5 uM compound, Western blot), 44%.

As to `CCN(CC)CCNC(=O)c1c(C)[nH]c(/C=C2\C(=O)Nc3c2cccc3-c2cccnc2OC)c1C` [Example 286], the IC50 in [1] stood at 1.92 µM; in assay [3], 3.81 µM; in [4] it was 5.32 µM; in [5], 3.64 µM; in assay [6], 2.71 µM; in [7], 6.87 µM. The activity at 5 µM worked out at 31% in [8] (5 uM compound, Western blot); 48% in [9] (5 uM compound, Western blot); 54% in [10] (5 uM compound, Western blot).
